The target in one data set is HDAC8 (Homo sapiens (Human), UniProt Q9BY41). Kind of data set: HDAC8 inhibition assay (fluorogenic diacyl peptide). The class given is biochemical. Conditions: average of two experiments; read-out: HDAC Isoform IC50 (μM) 8.
The next data set deals with Human HDAC1 (Homo sapiens (Human), UniProt Q13547). Kind of data set: HDAC1 fluorogenic peptide deacetylation inhibition assay. The class given is biochemical. Conditions: average of two experiments; read-out: HDAC Isoform IC50 (μM) 1.
The target of another data set is Human HDAC6 (Homo sapiens (Human), UniProt Q9UBN7). Kind of data set: HDAC6 fluorogenic peptide deacetylation inhibition assay. Conditions: for IC50: average of two experiments, read-out: HDAC Isoform IC50 (μM) 6. In kind it is biochemical.
In the next data set the target is HDAC9 (Homo sapiens (Human), UniProt Q9UKV0). Nature of the data set: HDAC9 inhibition assay (Acetyl-Lys(trifluoroacetyl)-AMC substrate). The class given is biochemical. The following applies: average of two experiments; read-out: HDAC Isoform IC50 (μM) 9.
The next data set concerns the target HDAC2 (Homo sapiens (Human), UniProt Q92769). Nature of the data set: HDAC2 fluorogenic peptide deacetylation inhibition assay. The class given is biochemical. Conditions: average of two experiments; read-out: HDAC Isoform IC50 (μM) 2.
Data set [1] has as its system traumatic brain injury in rats. Conditions: following traumatic brain injury in rats; cited from earlier work.
For a further data set, the system named is primary cortical neurons. Nature of the data set: HCA oxidative stress neuroprotection assay (MTT). The class given is cell-based. From the text: It has been shown that HDAC6 inhibition protects against neuronal degeneration and stimulates neurite outgrowth in dorsal root ganglion neurons, therefore indicating methods of treating CNS diseases. Accordingly, present HDACI compounds were examined in a model of oxidative stress induced by homocysteic acid (HCA). This model leads to depletion of glutathione, the major intracellular antioxidant. HDAC6 inhibition rescues neuronal death in this model, possibly by causing hyperacetylation of peroxiredoxins. […] (A. P. Kozikowski et al., J. Med. Chem. 2007, 50, 3054-61.)
FIGS. 1 and 2 contain neuroprotection bar graphs of the HCA oxidative stress test assay. Neurons were treated with TSA (FIG. 1) or a present HDACI compound (FIG. 2), alone or with the addition of HCA (homocysteic acid).
The data summarized in FIGS. 1 and 2 was obtained according to the following neuroprotective assay. Primary cortical neuron cultures were obtained from the cerebral cortex of fetal Sprague-Dawley rats (embryonic day 17). All experiments were initiated 24 hours after plating. Under these conditions, the cells are not susceptible to glutamate-mediated excitotoxicity. […] Viability was assessed after 24 hours by the MTT assay (3-(4,5-dimethylthiazol-2-yl)-2,5-diphenyltetrazolium bromide) method.

The next data set relates to mice with colitis. Nature of the data set: colitis in mice. The class given is in vivo. The following applies: treatment begun once colitis had developed. From the text: Studies of autoimmunity also are undertaken. In this case, interruption of existing disease is especially important and HDAC6 targeting can be efficacious without any requirement for additional therapy (in contrast to a need for brief low-dose RPM in the very aggressive, fully MHC-mismatched transplant models). […] These studies are extended by assessing whether deletion of HDAC6 in Tregs (Foxp3/Cre) vs. T cells (CD4=Cre) vs. DC (CD11c-Cre) differentially affect the development and severity of colitis. Similarly, control of colitis is assessed by inducing HDAC6 deletion at varying intervals after the onset of colitis with tamoxifen-regulated Cre.

Another data set has as its target HDAC5 (Homo sapiens (Human), UniProt Q9UQL6). Kind of data set: HDAC5 inhibition assay (Acetyl-Lys(trifluoroacetyl)-AMC substrate). The class given is biochemical. Conditions: average of two experiments; read-out: HDAC Isoform IC50 (μM) 5.
In another data set the target is HDAC7 (Homo sapiens (Human), UniProt Q8WUI4). The following applies: read-out: HDAC Isoform IC50 (μM) 7.

The structures appear in SMILES notation. pIC50: −log10 of the molar value. Read-outs that look alike come from different tables or passages of the source.

The values that follow come from patent US9249087B2, “HDAC inhibitors and therapeutic methods using the same” (THE BOARD OF TRUSTEES OF THE UNIVERSITY OF ILLINOIS, priority 2011, dated 2016).

Human HDAC6, sequence (Q9UBN7 whole entry, canonical isoform): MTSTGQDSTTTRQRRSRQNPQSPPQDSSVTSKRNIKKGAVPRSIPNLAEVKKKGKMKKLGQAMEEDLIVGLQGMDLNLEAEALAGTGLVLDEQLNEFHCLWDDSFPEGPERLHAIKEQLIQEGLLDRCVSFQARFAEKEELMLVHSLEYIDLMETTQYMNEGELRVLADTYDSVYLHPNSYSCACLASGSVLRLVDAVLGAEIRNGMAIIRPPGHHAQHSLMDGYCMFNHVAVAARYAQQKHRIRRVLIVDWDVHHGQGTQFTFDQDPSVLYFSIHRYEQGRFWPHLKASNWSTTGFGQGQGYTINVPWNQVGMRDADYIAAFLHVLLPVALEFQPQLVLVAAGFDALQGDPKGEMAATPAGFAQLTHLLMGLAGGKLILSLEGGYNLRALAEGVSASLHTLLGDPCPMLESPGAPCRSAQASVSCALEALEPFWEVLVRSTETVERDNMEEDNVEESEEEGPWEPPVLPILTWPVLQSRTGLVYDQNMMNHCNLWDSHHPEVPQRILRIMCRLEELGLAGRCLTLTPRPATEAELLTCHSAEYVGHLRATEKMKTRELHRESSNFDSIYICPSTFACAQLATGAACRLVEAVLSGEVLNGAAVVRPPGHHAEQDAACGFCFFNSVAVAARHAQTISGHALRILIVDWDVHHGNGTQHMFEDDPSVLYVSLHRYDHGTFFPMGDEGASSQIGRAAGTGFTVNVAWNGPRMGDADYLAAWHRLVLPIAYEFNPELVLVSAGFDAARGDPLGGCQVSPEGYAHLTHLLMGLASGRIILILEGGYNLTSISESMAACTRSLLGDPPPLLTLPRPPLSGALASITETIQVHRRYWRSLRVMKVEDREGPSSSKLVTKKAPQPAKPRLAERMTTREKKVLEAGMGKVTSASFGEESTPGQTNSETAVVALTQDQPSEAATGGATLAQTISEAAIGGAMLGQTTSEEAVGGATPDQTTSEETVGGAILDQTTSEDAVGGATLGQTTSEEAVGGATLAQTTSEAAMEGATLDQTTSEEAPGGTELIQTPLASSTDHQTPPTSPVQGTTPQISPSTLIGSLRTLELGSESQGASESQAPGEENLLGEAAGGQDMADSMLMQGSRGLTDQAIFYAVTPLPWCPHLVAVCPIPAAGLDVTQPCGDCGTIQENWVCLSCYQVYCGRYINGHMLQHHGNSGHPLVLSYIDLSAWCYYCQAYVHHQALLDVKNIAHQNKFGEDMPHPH
HDAC2, sequence (Q92769 whole entry, canonical isoform): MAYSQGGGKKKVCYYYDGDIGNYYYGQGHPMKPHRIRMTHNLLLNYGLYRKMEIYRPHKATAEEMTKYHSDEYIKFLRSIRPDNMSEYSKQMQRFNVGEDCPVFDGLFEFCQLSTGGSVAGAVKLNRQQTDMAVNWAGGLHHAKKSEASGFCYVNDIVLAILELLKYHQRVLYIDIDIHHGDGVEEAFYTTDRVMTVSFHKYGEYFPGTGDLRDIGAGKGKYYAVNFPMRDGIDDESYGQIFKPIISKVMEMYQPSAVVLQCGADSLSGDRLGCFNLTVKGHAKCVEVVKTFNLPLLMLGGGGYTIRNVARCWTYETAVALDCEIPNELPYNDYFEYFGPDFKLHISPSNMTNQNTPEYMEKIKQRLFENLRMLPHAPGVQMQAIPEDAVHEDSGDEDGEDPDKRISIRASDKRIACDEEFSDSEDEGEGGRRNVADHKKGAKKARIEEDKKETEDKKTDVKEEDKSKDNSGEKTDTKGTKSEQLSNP
HDAC9, sequence (Q9UKV0 whole entry, canonical isoform): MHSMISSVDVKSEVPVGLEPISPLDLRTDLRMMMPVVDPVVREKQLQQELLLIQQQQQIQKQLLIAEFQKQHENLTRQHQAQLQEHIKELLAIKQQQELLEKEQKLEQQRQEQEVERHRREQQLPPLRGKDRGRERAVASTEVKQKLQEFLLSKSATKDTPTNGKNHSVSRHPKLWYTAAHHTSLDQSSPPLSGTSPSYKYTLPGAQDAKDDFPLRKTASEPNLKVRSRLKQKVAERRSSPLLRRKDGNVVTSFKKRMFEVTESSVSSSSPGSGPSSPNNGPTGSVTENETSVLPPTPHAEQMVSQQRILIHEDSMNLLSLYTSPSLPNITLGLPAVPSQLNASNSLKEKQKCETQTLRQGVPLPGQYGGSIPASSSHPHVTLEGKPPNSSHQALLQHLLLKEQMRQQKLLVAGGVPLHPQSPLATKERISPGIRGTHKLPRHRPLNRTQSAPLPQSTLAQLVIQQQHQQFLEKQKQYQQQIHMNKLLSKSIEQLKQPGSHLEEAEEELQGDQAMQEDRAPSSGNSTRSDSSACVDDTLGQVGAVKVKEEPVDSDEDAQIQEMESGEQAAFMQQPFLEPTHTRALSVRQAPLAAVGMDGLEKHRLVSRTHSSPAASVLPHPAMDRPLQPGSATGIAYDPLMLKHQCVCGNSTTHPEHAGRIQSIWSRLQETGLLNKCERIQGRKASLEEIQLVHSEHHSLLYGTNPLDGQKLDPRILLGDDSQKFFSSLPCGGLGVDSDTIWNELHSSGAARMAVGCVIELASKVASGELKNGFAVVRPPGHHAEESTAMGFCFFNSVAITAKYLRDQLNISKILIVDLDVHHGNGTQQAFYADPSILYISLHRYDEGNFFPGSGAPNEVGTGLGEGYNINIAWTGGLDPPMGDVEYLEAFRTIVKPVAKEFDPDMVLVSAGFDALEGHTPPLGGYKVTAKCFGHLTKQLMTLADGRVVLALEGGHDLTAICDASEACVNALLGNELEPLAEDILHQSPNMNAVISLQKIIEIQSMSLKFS
Human HDAC1, sequence (Q13547 whole entry, canonical isoform): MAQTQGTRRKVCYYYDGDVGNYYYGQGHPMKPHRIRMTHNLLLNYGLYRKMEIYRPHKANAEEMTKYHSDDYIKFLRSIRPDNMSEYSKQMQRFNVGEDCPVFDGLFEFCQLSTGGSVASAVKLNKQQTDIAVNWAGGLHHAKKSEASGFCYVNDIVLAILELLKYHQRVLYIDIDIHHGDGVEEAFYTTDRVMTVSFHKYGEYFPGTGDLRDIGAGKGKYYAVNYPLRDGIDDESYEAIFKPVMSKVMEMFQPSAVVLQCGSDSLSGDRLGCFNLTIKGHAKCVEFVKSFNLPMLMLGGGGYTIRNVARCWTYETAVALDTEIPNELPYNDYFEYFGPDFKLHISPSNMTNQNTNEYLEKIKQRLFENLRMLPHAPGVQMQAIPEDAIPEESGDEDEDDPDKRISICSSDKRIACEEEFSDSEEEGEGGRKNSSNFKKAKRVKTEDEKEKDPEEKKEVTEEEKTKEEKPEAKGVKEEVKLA
HDAC8, sequence (Q9BY41 whole entry, canonical isoform): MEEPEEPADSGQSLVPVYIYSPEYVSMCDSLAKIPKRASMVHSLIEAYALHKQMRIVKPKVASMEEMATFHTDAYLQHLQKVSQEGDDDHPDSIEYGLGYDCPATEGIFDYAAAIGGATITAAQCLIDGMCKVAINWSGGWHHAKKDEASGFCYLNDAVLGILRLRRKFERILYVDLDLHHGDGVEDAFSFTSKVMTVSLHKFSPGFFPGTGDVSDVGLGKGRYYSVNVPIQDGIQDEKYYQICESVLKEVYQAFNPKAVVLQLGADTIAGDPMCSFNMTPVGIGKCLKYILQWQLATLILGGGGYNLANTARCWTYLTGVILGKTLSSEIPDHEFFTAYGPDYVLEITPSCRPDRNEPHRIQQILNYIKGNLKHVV
HDAC7, sequence (Q8WUI4 whole entry, canonical isoform): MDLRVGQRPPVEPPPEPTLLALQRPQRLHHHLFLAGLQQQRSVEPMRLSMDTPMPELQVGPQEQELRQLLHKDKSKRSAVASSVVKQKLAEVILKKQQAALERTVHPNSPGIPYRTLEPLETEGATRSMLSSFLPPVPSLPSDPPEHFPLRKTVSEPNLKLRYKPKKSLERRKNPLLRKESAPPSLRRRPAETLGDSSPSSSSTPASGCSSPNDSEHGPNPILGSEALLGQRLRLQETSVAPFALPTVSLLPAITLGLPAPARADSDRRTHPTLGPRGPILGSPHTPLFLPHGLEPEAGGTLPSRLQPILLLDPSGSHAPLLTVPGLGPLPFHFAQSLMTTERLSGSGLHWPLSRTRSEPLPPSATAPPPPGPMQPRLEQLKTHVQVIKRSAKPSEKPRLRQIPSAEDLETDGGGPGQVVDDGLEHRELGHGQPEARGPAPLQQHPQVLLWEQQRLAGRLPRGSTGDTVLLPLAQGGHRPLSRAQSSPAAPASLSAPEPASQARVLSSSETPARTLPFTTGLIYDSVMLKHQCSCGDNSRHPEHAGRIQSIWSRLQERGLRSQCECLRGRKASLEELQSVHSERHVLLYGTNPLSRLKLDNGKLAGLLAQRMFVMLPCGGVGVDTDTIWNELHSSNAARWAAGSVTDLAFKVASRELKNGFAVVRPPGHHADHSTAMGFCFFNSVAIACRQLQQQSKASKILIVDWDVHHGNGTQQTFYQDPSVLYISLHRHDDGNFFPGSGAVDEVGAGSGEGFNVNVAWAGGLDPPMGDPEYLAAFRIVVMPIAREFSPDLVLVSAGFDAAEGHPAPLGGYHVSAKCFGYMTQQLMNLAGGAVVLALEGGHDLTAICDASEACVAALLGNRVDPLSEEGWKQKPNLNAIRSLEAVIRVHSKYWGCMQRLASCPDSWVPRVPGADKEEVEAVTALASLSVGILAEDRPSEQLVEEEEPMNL

For orientation: IC50 means the concentration that gives 50% inhibition. As usually defined, the pIC50 is −log10 of the IC50, conventionally taken in molar units. On to `Cc1cc2ccccc2n1Cc1ccc(C(=O)NO)cc1` [Compound 4, N-Hydroxy-4-((2-methyl-1H-indol-1-yl)methyl)benzamide], for which the IC50 came out at 0.397 µM on HDAC8; 5.34 µM at Human HDAC1; 0.00251 µM at Human HDAC6; 18.3 µM on HDAC9; 8.14 µM at HDAC2. Moreover, the “selectivity against HDAC1” value at Human HDAC6 (HDAC6 vs HDAC1, running text) is given as 2125 fold. In addition, the pIC50 on Human HDAC6 (read-out: HDAC6 IC50) is 8.60.
Turning to `Cc1cn(Cc2ccc(C(=O)NO)cc2)c2ccccc12` [Compound 6, N-Hydroxy-4-((3-methyl-1H-indol-1-yl)methyl)benzamide], the IC50 is 0.911 µM on HDAC8; 6.79 µM on Human HDAC1; 0.00511 µM on Human HDAC6; 14.5 µM on HDAC9; 11.9 µM on HDAC2.
For `CN(C)c1ccc(C(=O)NCCCCCNC(=O)CS)cc1` [DMA-PB, 4-dimethylamino-N-[5-(2-mercaptoacetylamino)pentyl]benzamide], in data set [1], the “histone H3 acetylation” value was “increase histone H3 acetylation” and the microglia inflammatory response entry was “reduce microglia inflammatory response”.
As to `CC(/C=C/C(=O)NO)=C\[C@@H](C)C(=O)c1ccc(N(C)C)cc1` [TSA, Trichostatin A], the “neuroprotection in HCA-induced neurodegeneration assay” value in the data set with primary cortical neurons (0.5 μM, HCA 5 mM, viability by MTT after 24 hours) is recorded as “moderately neuroprotective”. The “neurotoxicity to primary cortical neurons” value in the data set with primary cortical neurons (higher concentrations than 0.5 μM) is on record as “dose-dependant neurotoxicity”.
On to `O=C(CCCCCCC(=O)Nc1ccc([C@H]2O[C@@H](CSc3nc(-c4ccccc4)c(-c4ccccc4)o3)C[C@@H](c3ccc(CO)cc3)O2)cc1)NO` [Tubacin], for which, in the data set with mice with colitis, the “rescue of mice with established colitis” value is reported as “able to rescue mice”. Also, the IC50 on HDAC5 worked out at 3.35 µM; on HDAC7, 9.7 µM; on HDAC2, 6.27 µM.
